Measured values: ChEMBL document CHEMBL5505995, “Discovery of novel urea derivatives as ferroptosis and autophagy inducer for human colon cancer treatment” (Eur J Med Chem, 2024)
Each block holds one compound with its values, some of them ahead of it. Active and inactive are the calls of the source. The calls are words filed in the database; no cut-off is given here.

Key:
Format in all cases: functional, cell-based
[1] = tested on: HT-29; experiment: Antiproliferative activity against human HT-29 cells assessed as inhibition of cell growth at 1 to 10 uM incubated for 48 hrs by MTT assay; conditions: dose 1-10 µM
[2] = tested on: HepG2; experiment: Antiproliferative activity against human HepG2 cells assessed as inhibition of cell growth incubated for 48 hrs by MTT assay; conditions: HepG2, 48 h
[3] = tested on: HeLa; experiment: Antiproliferative activity against human HeLa cells assessed as inhibition of cell growth incubated for 48 hrs by MTT assay
[4] = tested on: K562; experiment: Antiproliferative activity against human K562 cells assessed as inhibition of cell growth incubated for 48 hrs by MTT assay; conditions: K562, 48 h
[5] = tested on: HT-29; experiment: Antiproliferative activity against human HT-29 cells assessed as inhibition of cell growth incubated for 48 hrs by MTT assay; conditions: HT-29, 48 h
[6] = tested on: MCF7; experiment: Antiproliferative activity against human MCF7 cells assessed as inhibition of cell growth incubated for 48 hrs by MTT assay; conditions: MCF7, 48 h

IC50 [2]: 40.4 µM
IC50 [3]: 16.6 µM
IC50 [4]: 34.4 µM
IC50 [5]: 28.6 µM
IC50 [6]: 48 µM
SMILES: COc1ccc2c(c1)NCCN2C(=O)Nc1ccccc1C(F)(F)F
Activity [1]: Active

SMILES: CCOc1ccccc1-n1c(C(C)N2CCN(C(=O)COc3ccc(Cl)cc3)CC2)nc2ccccc2c1=O (stereo not drawn) [ERASTIN]
IC50 [5]: 20.9 µM

IC50 [2]: 20.5 µM
IC50 [3]: 6.52 µM
IC50 [4]: 4.57 µM
IC50 [5]: 14.9 µM
IC50 [6]: 40.3 µM
SMILES: COc1ccc(OC)c(NC(=O)N2CCNc3cc(OC)ccc32)c1
Activity [1]: Active

SMILES: COc1ccc2c(c1)NCCN2C(=O)Nc1ccc(Cl)cc1
Activity [1]: Active

SMILES: COc1ccc(NC(=O)N2CCNc3cc(OC)ccc32)cc1
Activity [1]: Active

SMILES: O=C(NCCCl)N1CCNc2ncccc21
Activity [1]: inactive

SMILES: COc1ccc(NC(=O)N2CCNc3ccccc32)cc1
Activity [1]: Active

IC50 [5]: 3.25 µM
SMILES: COC(=O)c1ccc([C@H]2c3[nH]c4ccccc4c3C[C@H](C(=O)OC)N2C(=O)CCl)cc1

SMILES: COC(=O)c1ccc2c(c1)NCCN2C(=O)Nc1ccc(C)cc1
Activity [1]: inactive

IC50 [2]: 11.2 µM
IC50 [3]: 10.3 µM
IC50 [5]: 3.56 µM
IC50 [6]: 9.81 µM
SMILES: CNC(=O)c1cc(Oc2ccc(NC(=O)Nc3ccc(Cl)c(C(F)(F)F)c3)cc2)ccn1 [SORAFENIB]

SMILES: COc1ccccc1NC(=O)N1CCNc2ncccc21
Activity [1]: inactive

SMILES: O=C(Nc1cccc2ccccc12)N1CCNc2ccccc21
Activity [1]: Active

SMILES: COC(=O)c1ccc2c(c1)NCCN2C(=O)Nc1ccc(OC)cc1
Activity [1]: inactive

IC50 [2]: 17.6 µM
IC50 [3]: 22.7 µM
IC50 [4]: 19.4 µM
IC50 [5]: 26.6 µM
IC50 [6]: > 50 µM
SMILES: COc1ccc2c(c1)NCCN2C(=O)Nc1ccccc1C
Activity [1]: Active

SMILES: COc1ccc2c(c1)NCCN2C(=O)Nc1ccc(C)cc1
Activity [1]: Active

SMILES: COc1ccc2c(c1)NCCN2C(=O)Nc1c(C)cccc1C
Activity [1]: Active

SMILES: CC(C)NC(=O)N1CCNc2ccccc21
Activity [1]: Active

SMILES: Cc1ccc(NC(=O)N2CCNc3ncccc32)cc1
Activity [1]: inactive

SMILES: COc1ccc2c(c1)NCCN2C(=O)Nc1ccc(N)cc1
Activity [1]: Active

SMILES: COc1cccc(NC(=O)N2CCNc3cc(OC)ccc32)c1
Activity [1]: Active

SMILES: COc1ccc2c(c1)NCCN2C(=O)Nc1ccc(OC(F)(F)F)cc1
Activity [1]: Active

SMILES: COc1ccc2c(c1)NCCN2C(=O)Nc1cccc2ccccc12
Activity [1]: inactive

SMILES: Cc1ccc(NC(=O)N2CCNc3ccccc32)cc1
Activity [1]: Active

SMILES: COc1ccc2c(c1)NCCN2C(=O)Nc1ccc(Cl)c(C(F)(F)F)c1
Activity [1]: Active

SMILES: COc1ccc2c(c1)NCCN2C(=O)NCCCCl
Activity [1]: Active

SMILES: O=C(Nc1ccc(OC(F)(F)F)cc1)N1CCNc2ccccc21
Activity [1]: Active

SMILES: CCNC(=O)N1CCNc2cc(OC)ccc21
Activity [1]: Active

IC50 [2]: 15.7 µM
IC50 [3]: 25.4 µM
IC50 [4]: 28.3 µM
IC50 [5]: 28.4 µM
IC50 [6]: 36.4 µM
SMILES: COc1ccc2c(c1)NCCN2C(=O)NC(C)(C)C
Activity [1]: Active

IC50 [2]: 43.5 µM
IC50 [3]: 11.7 µM
IC50 [4]: 49.1 µM
IC50 [5]: 19.1 µM
IC50 [6]: > 50 µM
SMILES: COc1ccc2c(c1)NCCN2C(=O)Nc1ccccc1OC
Activity [1]: Active

SMILES: COc1ccc2c(c1)NCCN2C(=O)NC1CCCCC1
Activity [1]: Active
